Reference: ChEMBL document CHEMBL1147581, “Development of novel lipid-peptide hybrid compounds with antibacterial activity from natural cationic antibacterial peptides” (Bioorg Med Chem Lett, 2004)
In brackets after ≈: the same amount, converted by molar mass. Activity calls are given as the source filed them. The calls are words filed in the database; no cut-off is given here. Non-standard residues stand in square brackets, D forms with d. Residues, ends and D or L forms follow the SMILES beside them. *: point of attachment. Palmitoleoyl = CCCCCC/C=C\CCCCCCCC(=O)*; PhAc = O=C(Cc1ccccc1)*; Bz = O=C(c1ccccc1)*; Ahx = NCCCCCC(=O)O

What was measured:
Staphylococcus aureus = assay: Minimum inhibitory concentration against Staphylococcus aureus ATCC 6538; format: functional
[1] = Stability of the peptide in the presence of mouse serum; format: ADME, organism-based
Mus musculus [2] = organism: Mus musculus; assay: Concentration required for half-maximal lysis of mouse erythrocytes; format: functional
Candida albicans [3] = assay: Minimum inhibitory concentration against Candida albicans ATCC 36232; format: functional
Escherichia coli [4] = assay: Minimum inhibitory concentration against Escherichia coli ATCC 25922; format: functional
[5] = Minimum inhibitory concentration against Micrococcus luteus ATCC 9341; format: functional
Pseudomonas aeruginosa [6] = assay: Minimum inhibitory concentration against Pseudomonas aeruginosa ATCC 9027; format: functional
Candida albicans [7] = assay: Minimum inhibitory concentration against Candida albicans ATCC 36232; NA = not active; format: functional, organism-based
Pseudomonas aeruginosa [8] = assay: Minimum inhibitory concentration against Pseudomonas aeruginosa ATCC 9027; NA = not active; format: functional, organism-based
Escherichia coli [9] = assay: Minimum inhibitory concentration against Escherichia coli ATCC 25922; NA = not active; format: functional, organism-based
Mus musculus [10] = organism: Mus musculus; assay: Concentration required for half-maximal lysis of mouse erythrocytes; NA = not active; format: functional, organism-based

SMILES	MIC (Staphylococcus aureus) [µg/mL]	half-life [1] [min]	HD50 (Mus musculus [2]) [µg/mL]	MIC (Candida albicans [3]) [µg/mL]	MIC (Escherichia coli [4]) [µg/mL]	MIC [5] [µg/mL]	MIC (Pseudomonas aeruginosa [6]) [µg/mL]	MIC (Candida albicans [7])	MIC (Pseudomonas aeruginosa [8])	MIC (Escherichia coli [9])	HD50 (Mus musculus [10])
CC[C@H](C)[C@H](NC(=O)[C@H](Cc1ccc(O)cc1)NC(=O)[C@H](CCCCN)NC(=O)[C@@H](N)CCCCN)C(=O)N[C@@H](CCCCN)C(=O)N[C@H](C(=O)N[C@@H](Cc1ccccc1)C(=O)N[C@H](C(=O)N[C@@H](Cc1ccccc1)C(=O)N[C@@H](CCCCN)C(N)=O)C(C)C)C(C)C (H-KKYIKVFVFK-NH2)	6.3 (≈ 4.85 µM)	8	–	–	–	–	–	–	–	–	–
CC(C)[C@H](NC(=O)[C@H](CS)NC(=O)[C@@H](NC(=O)[C@H](CCCN=C(N)N)NC(=O)[C@H](CCCCN)NC(=O)CNC(=O)[C@H](CC(N)=O)NC(=O)[C@H](CS)NC(=O)[C@@H](N)Cc1ccc(O)cc1)C(C)C)C(=O)N[C@@H](CS)C(=O)N[C@@H](CCCN=C(N)N)C(N)=O (H-YCNGKRVCVCR-NH2)	25 (≈ 19.2 µM)	–	>100	25 (≈ 19.2 µM)	12.5 (≈ 9.62 µM)	25 (≈ 19.2 µM)	50 (≈ 38.5 µM)	–	–	–	–
CC(=O)N[C@@H](Cc1ccc(O)cc1)C(=O)N[C@@H](CS)C(=O)N[C@@H](CC(N)=O)C(=O)NCC(=O)N[C@@H](CCCCN)C(=O)N[C@@H](CCCN=C(N)N)C(=O)N[C@H](C(=O)N[C@@H](CS)C(=O)N[C@H](C(=O)N[C@@H](CS)C(=O)N[C@@H](CCCN=C(N)N)C(N)=O)C(C)C)C(C)C (Ac-YCNGKRVCVCR-NH2)	50 (≈ 37.3 µM)	–	>100	–	–	100 (≈ 74.5 µM)	–	inactive	inactive	inactive	–
CC(C)[C@H](NC(=O)[C@H](CS)NC(=O)[C@@H](NC(=O)[C@H](CCCN=C(N)N)NC(=O)[C@H](CCCCN)NC(=O)CNC(=O)[C@H](CC(N)=O)NC(=O)[C@H](CS)NC(=O)[C@H](Cc1ccc(O)cc1)NC(=O)[C@@H](N)CCCCN)C(C)C)C(=O)N[C@@H](CS)C(=O)N[C@@H](CCCN=C(N)N)C(N)=O (H-KYCNGKRVCVCR-NH2)	12.5 (≈ 8.75 µM)	–	>100	25 (≈ 17.5 µM)	50 (≈ 35 µM)	6.3 (≈ 4.41 µM)	50 (≈ 35 µM)	–	–	–	–
CCCCCC/C=C\CCCCCCCC(=O)N[C@@H](Cc1ccc(O)cc1)C(=O)N[C@@H](CS)C(=O)N[C@@H](CC(N)=O)C(=O)NCC(=O)N[C@@H](CCCCN)C(=O)N[C@@H](CCCN=C(N)N)C(=O)N[C@H](C(=O)N[C@@H](CS)C(=O)N[C@H](C(=O)N[C@@H](CS)C(=O)N[C@@H](CCCN=C(N)N)C(N)=O)C(C)C)C(C)C (Palmitoleoyl-YCNGKRVCVCR-NH2)	> 100	–	>100	–	–	> 100	–	inactive	inactive	inactive	–
CC[C@H](C)[C@H](NC(=O)CN)C(=O)NCC(=O)N[C@@H](CCCCN)C(=O)N[C@@H](Cc1ccccc1)C(=O)N[C@@H](CC(C)C)C(=O)N[C@@H](Cc1c[nH]cn1)C(=O)N[C@@H](CO)C(=O)N[C@@H](C)C(=O)N[C@@H](CCCCN)C(=O)N[C@@H](CCCCN)C(=O)N[C@@H](Cc1ccccc1)C(=O)NCC(=O)N[C@@H](CCCCN)C(=O)N[C@@H](C)C(=O)N[C@@H](Cc1ccccc1)C(=O)N[C@H](C(=O)NCC(=O)N[C@@H](CCC(=O)O)C(=O)N[C@H](C(=O)N[C@@H](CCSC)C(=O)N[C@@H](CC(N)=O)C(=O)N[C@@H](CO)C(=O)O)[C@@H](C)CC)C(C)C [MAGAININ 2] (H-GIGKFLHSAKKFGKAFVGEIMNS-OH)	40 (≈ 16.2 µM)	–	–	50 (≈ 20.3 µM)	20 (≈ 8.11 µM)	50 (≈ 20.3 µM)	20 (≈ 8.11 µM)	–	–	–	inactive
CC(C)[C@H](NC(=O)[C@H](CS)NC(=O)[C@@H](NC(=O)[C@H](CCCN=C(N)N)NC(=O)[C@H](CCCCN)NC(=O)CNC(=O)[C@H](CC(N)=O)NC(=O)[C@H](CS)NC(=O)[C@H](Cc1ccc(O)cc1)NC(=O)[C@H](CCCCN)NC(=O)[C@@H](N)CCCCN)C(C)C)C(=O)N[C@@H](CS)C(=O)N[C@@H](CCCN=C(N)N)C(N)=O (H-KKYCNGKRVCVCR-NH2)	6.3 (≈ 4.05 µM)	–	>100	12.5 (≈ 8.03 µM)	25 (≈ 16.1 µM)	6.3 (≈ 4.05 µM)	25 (≈ 16.1 µM)	–	–	–	–
CC[C@H](C)[C@H](NC(=O)[C@H](Cc1ccc(O)cc1)NC(=O)[C@H](CCCCN)NC(=O)[C@H](CCCCN)NC(C)=O)C(=O)N[C@@H](CCCCN)C(=O)N[C@H](C(=O)N[C@@H](Cc1ccccc1)C(=O)N[C@H](C(=O)N[C@@H](Cc1ccccc1)C(=O)N[C@@H](CCCCN)C(N)=O)C(C)C)C(C)C (Ac-KKYIKVFVFK-NH2)	100 (≈ 74.6 µM)	30	–	–	–	–	–	–	–	–	–
CC(C)[C@H](NC(=O)[C@H](CS)NC(=O)[C@@H](NC(=O)[C@H](CCCN=C(N)N)NC(=O)[C@H](CCCCN)NC(=O)CNC(=O)[C@H](CC(N)=O)NC(=O)[C@H](CS)NC(=O)[C@H](Cc1ccc(O)cc1)NC(=O)[C@@H](N)Cc1ccccc1)C(C)C)C(=O)N[C@@H](CS)C(=O)N[C@@H](CCCN=C(N)N)C(N)=O (H-FYCNGKRVCVCR-NH2)	25 (≈ 17.3 µM)	–	>100	25 (≈ 17.3 µM)	25 (≈ 17.3 µM)	12.5 (≈ 8.64 µM)	25 (≈ 17.3 µM)	–	–	–	–
CC[C@H](C)[C@H](NC(=O)[C@H](Cc1ccc(O)cc1)NC(=O)[C@H](CCCCN)NC(=O)[C@H](CCCCN)NC(=O)c1ccccc1)C(=O)N[C@@H](CCCCN)C(=O)N[C@H](C(=O)N[C@@H](Cc1ccccc1)C(=O)N[C@H](C(=O)N[C@@H](Cc1ccccc1)C(=O)N[C@@H](CCCCN)C(N)=O)C(C)C)C(C)C (Bz-KKYIKVFVFK-NH2) [listing 1 of 2 here]	–	30	–	–	–	–	–	–	–	–	–
CC(=O)NCCCCCC(=O)N[C@@H](Cc1ccc(O)cc1)C(=O)N[C@@H](CS)C(=O)N[C@@H](CC(N)=O)C(=O)NCC(=O)N[C@@H](CCCCN)C(=O)N[C@@H](CCCN=C(N)N)C(=O)N[C@H](C(=O)N[C@@H](CS)C(=O)N[C@H](C(=O)N[C@@H](CS)C(=O)N[C@@H](CCCN=C(N)N)C(N)=O)C(C)C)C(C)C (Ac-[Ahx]YCNGKRVCVCR-NH2)	> 100	–	>100	–	–	> 100	–	inactive	inactive	inactive	–
CC(C)[C@H](NC(=O)[C@H](CS)NC(=O)[C@@H](NC(=O)[C@H](CCCN=C(N)N)NC(=O)[C@H](CCCCN)NC(=O)CNC(=O)[C@H](CC(N)=O)NC(=O)[C@H](CS)NC(=O)[C@H](Cc1ccc(O)cc1)NC(=O)CCCCCN)C(C)C)C(=O)N[C@@H](CS)C(=O)N[C@@H](CCCN=C(N)N)C(N)=O (H-[Ahx]YCNGKRVCVCR-NH2)	50 (≈ 35.4 µM)	–	>100	–	–	50 (≈ 35.4 µM)	–	inactive	inactive	inactive	–
CC[C@H](C)[C@H](NC(=O)[C@H](Cc1ccc(O)cc1)NC(=O)[C@H](CCCCN)NC(=O)[C@H](CCCCN)NC(=O)c1ccccc1)C(=O)N[C@@H](CCCCN)C(=O)N[C@H](C(=O)N[C@@H](Cc1ccccc1)C(=O)N[C@H](C(=O)N[C@@H](Cc1ccccc1)C(=O)N[C@@H](CCCCN)C(N)=O)C(C)C)C(C)C (Bz-KKYIKVFVFK-NH2) [listing 2 of 2 here]	50 (≈ 35.6 µM)	–	–	–	–	–	–	–	–	–	–
CC[C@H](C)[C@H](NC(=O)[C@H](Cc1ccc(O)cc1)NC(=O)[C@H](CCCCN)NC(=O)[C@H](CCCCN)NC(=O)CCCCCNC(C)=O)C(=O)N[C@@H](CCCCN)C(=O)N[C@H](C(=O)N[C@@H](Cc1ccccc1)C(=O)N[C@H](C(=O)N[C@@H](Cc1ccccc1)C(=O)N[C@@H](CCCCN)C(N)=O)C(C)C)C(C)C (Ac-[Ahx]KKYIKVFVFK-NH2)	6.3 (≈ 4.33 µM)	45	–	–	–	–	–	–	–	–	–
CC(C)[C@H](NC(=O)[C@H](CS)NC(=O)[C@@H](NC(=O)[C@H](CCCN=C(N)N)NC(=O)[C@H](CCCCN)NC(=O)CNC(=O)[C@H](CC(N)=O)NC(=O)[C@H](CS)NC(=O)[C@H](Cc1ccc(O)cc1)NC(=O)[C@H](Cc1ccccc1)NC(=O)[C@@H](N)CCCCN)C(C)C)C(=O)N[C@@H](CS)C(=O)N[C@@H](CCCN=C(N)N)C(N)=O (H-KFYCNGKRVCVCR-NH2)	6.3 (≈ 4 µM)	–	>100	12.5 (≈ 7.94 µM)	25 (≈ 15.9 µM)	6.3 (≈ 4 µM)	50 (≈ 31.7 µM)	–	–	–	–
CC[C@H](C)[C@H](NC(=O)CN)C(=O)NCC(=O)N[C@@H](C)C(=O)N[C@H](C(=O)N[C@@H](CC(C)C)C(=O)N[C@@H](CCCCN)C(=O)N[C@H](C(=O)N[C@@H](CC(C)C)C(=O)N[C@H](C(=O)N[C@H](C(=O)NCC(=O)N[C@@H](CC(C)C)C(=O)N1CCC[C@H]1C(=O)N[C@@H](C)C(=O)N[C@@H](CC(C)C)C(=O)N[C@H](C(=O)N[C@@H](CO)C(=O)N[C@@H](Cc1c[nH]c2ccccc12)C(=O)N[C@H](C(=O)N[C@@H](CCCCN)C(=O)N[C@@H](CCCNC(=N)N)C(=O)N[C@@H](CCCCN)C(=O)N[C@@H](CCCNC(=N)N)C(=O)N[C@@H](CCC(N)=O)C(=O)N[C@@H](CCC(N)=O)C(N)=O)[C@@H](C)CC)[C@@H](C)CC)[C@@H](C)O)[C@@H](C)O)C(C)C)C(C)C [MELITTIN]	–	–	–	1.56 (≈ 0.548 µM)	–	0.78 (≈ 0.274 µM)	–	–	–	–	inactive
CC(C)[C@H](NC(=O)[C@H](CS)NC(=O)[C@@H](NC(=O)[C@H](CCCN=C(N)N)NC(=O)[C@H](CCCCN)NC(=O)CNC(=O)[C@H](CC(N)=O)NC(=O)[C@H](CS)NC(=O)[C@H](Cc1ccc(O)cc1)NC(=O)Cc1ccccc1)C(C)C)C(=O)N[C@@H](CS)C(=O)N[C@@H](CCCN=C(N)N)C(N)=O (PhAc-YCNGKRVCVCR-NH2)	100 (≈ 70.5 µM)	–	>100	–	–	> 100	–	inactive	inactive	inactive	–
